≈ marks a conversion by molar mass, not a printed value. Like-named read-outs stand apart in the source and are kept apart here. Where a SMILES comes first, the peptide text is derived from it. Where no end group is shown, it is not given here. The star is where a group is joined. Pentadecanoyl = CCCCCCCCCCCCCCC(=O)*; Stearoyl = CCCCCCCCCCCCCCCCCC(=O)*; Palmitoyl = CCCCCCCCCCCCCCCC(=O)*; Tridecanoyl = CCCCCCCCCCCCC(=O)*; Myristoyl = CCCCCCCCCCCCCC(=O)*; Lauroyl = CCCCCCCCCCCC(=O)*
Key:
Candida albicans = format: cell-based
Description: (§1) MICs (minimal inhibitory concentrations) were determined for the hexapeptides of interest using a slightly modified version of the NCCLS (National Committee for Clinical Laboratory Standards) broth microdilution method as described previously (Steinberg et al., AAC 41: 1738, 1997). Briefly, antimicrobial agents were prepared as 10× concentrates in the most appropriate solvent. For the hexapeptide, 0.01% acetic acid containing 0.2% bovine serum albumin as a carrier protein was used. Inocula were prepared by resuspending colonies from a BAP (please spell out this term) in medium and adjusting the suspension to match that of a 0.5 McFarland standard. The suspension was diluted into fresh medium (as recommended by NCCLS for the organism) to give 2×10^5 to 7×10^5 CFU/ml for bacteria or 2×10^3 to 7×10^3 CFU/ml for Candida. After dispensing 100 μl aliquots of the microbial suspension into each well of a 96-well polypropylene microtiter plate, 11 μl of test compound was added. The MIC was defined as the lowest concentration of drug which prevented visible turbidity after 16 to 20 hours (bacteria) or 46 to 50 hours (Candida) at 35° C.

[1] = system: azole resistant strains of C. albicans; format: cell-based; design: MIC-SEQ ID NO: 55 + azole, peptide part / MIC-SEQ ID NO: 55 + azole, azole part: unit not given beside the values; conditions: in combination with SEQ ID NO: 55
Description: (§2) The fractional inhibitory concentration (FIC) index was used to determine the synergy between antimicrobial agents. Peptide MICs against test microorganisms were determined three times on separate occasions. […]
All strains are azole resistant clinical isolates from Prof. Ted White (Seattle Biotechnology Research Institute, Seattle)

Staphylococcus aureus = format: cell-based
Description: as §1

Pseudomonas aeruginosa = format: cell-based; design: MIC, lipid length SAR: unit not given here; conditions: for MIC, lipid length SAR: P.aeruginosa; for MIC: agent alone
Description: as §1

Trychophyton rubrum = assay: MIC100 against dermatophyte Trychophyton rubrum; format: cell-based; conditions: T. rubrum; at 10 days
Description: (§3) In order to compare the activity of various antimicrobial peptides, including hexapeptide SEQ ID NO:1 (P0666), MIC were determined against the dermatophytes Trychophyton rubrum and Trychophyton mentagrophytes. The concentration of samples investigated were: 2000, 1000, 500, 250 and 125 μg/ml, respectively. The medium used was modified Sabouraud's media without agar. For a 100 mL of modified Sabouraud medium: 3 g of Sabouraud's dextrose broth (Difco) was mixed into 100 mL of deionized water. The pH was adjusted to 7.0 with 0.1 N NaOH. The solution was autoclaved for thirty minutes. 940 μL of medium was poured into sterile 20 mL test tubes with plastic caps and was allowed to cool.
(§4) 50 μL of […] was added to each 20 mL test tube to make the required concentration. A control tube was composed of 50 μL of saline without sample. For the MIC experiments,
(§5) 10 μL of organism suspended in saline was added to the each 20 mL test tube and vortexed slightly. Each of the test tubes was covered in parafilm and maintained on a shaker at 27° C. at a speed of approximately 100 rpm.
(§6) The growth/inhibition of the organism was observed on a daily basis. […] The Minimum Inhibition Concentration (MIC100) for compounds F1 to F10 against fungus Trychophyton rubrum and Trychophyton mentagrophytes at 10 days.

[2] = system: Trychophyton mentagrophytes; assay: MIC100 against dermatophyte Trychophyton mentagrophytes; format: cell-based; conditions: T. mentagrophytes; at 10 days
Description: as §3, §4, §5, §6

MRSA = assay: Kill curve in 10% sheep serum-phosphate buffer against MRSA; format: cell-based, S. aureus; design: MRSA count in kill curve: unit not given here
[3] = system: Salmonella typhimurium 14028S; assay: MIC, broth microdilution, S. typhimurium; format: cell-based; design: unit not given here; conditions: S.typhimurium
Description: as §1

P. acnes = assay: Activity against extended panel of P. acnes; format: cell-based; design: unit not given here
Source text: A very promising application for short bioactive peptides is for dermatological indications such as acne.

P. aeruginosa = format: cell-based; conditions: combined with SEQ ID NO: 55
Description: as §2

## Clc1ccccc1C(c1ccccc1)(c1ccccc1)n1ccnc1 [Clotrimazole, clotrimazole, reference compound]
Candida albicans; T.W. Candida #184, azole resistant clinical isolate
  MIC: > 256 µg/mL
Candida albicans; T.W. Candida #185 (CDR1,2), azole resistant clinical isolate
  MIC: 128 µg/mL (≈ 371 µM)
Candida albicans; T.W. Candida #186 (CDR1,2), azole resistant clinical isolate
  MIC: 32 µg/mL (≈ 92.8 µM)
Candida albicans; T.W. Candida #187 (CDR1,2), azole resistant clinical isolate
  MIC: > 256 µg/mL
Candida albicans; T.W. Candida #192 (CDR1,2), azole resistant clinical isolate
  MIC: 128 µg/mL (≈ 371 µM)
Candida albicans; T.W. Candida #193, azole resistant clinical isolate
  MIC: 0.5 µg/mL (≈ 1.45 µM)
Candida albicans; T.W. Candida #194, azole resistant clinical isolate
  MIC: > 256 µg/mL
Candida albicans; T.W. Candida #195, azole resistant clinical isolate
  MIC: 256 µg/mL (≈ 742 µM)
Candida albicans; T.W. Candida #196 (CDR1,2), azole resistant clinical isolate
  MIC: 64 µg/mL (≈ 186 µM)
Candida albicans; T.W. Candida #197, azole resistant clinical isolate
  MIC: > 256 µg/mL
Candida albicans; T.W. Candida #198, azole resistant clinical isolate
  MIC: > 256 µg/mL
Candida albicans; T.W. Candida #199 (CDR1,2), azole resistant clinical isolate
  MIC: 64 µg/mL (≈ 186 µM)
[1]; C. albicans #185
  MIC-SEQ ID NO: 55 + azole, azole part: 12.5
[1]; C. albicans #186
  MIC-SEQ ID NO: 55 + azole, azole part: 12.5
[1]; C. albicans #187
  MIC-SEQ ID NO: 55 + azole, azole part: 25
[1]; C. albicans #192
  MIC-SEQ ID NO: 55 + azole, azole part: 50
[1]; C. albicans #196
  MIC-SEQ ID NO: 55 + azole, azole part: 50
[1]; C. albicans #199
  MIC-SEQ ID NO: 55 + azole, azole part: 25

## CCCCCCCCCCCC(=O)N[C@@H](CCCCN)C(=O)N[C@@H](Cc1ccccc1)C(=O)N[C@@H](CCCCN)C(=O)N[C@@H](Cc1c[nH]c2ccccc12)C(=O)N1CCC[C@H]1C(=O)N[C@@H](Cc1c[nH]c2ccccc12)C(N)=O [compound 72] (Lauroyl-KFKWPW-NH2)
Staphylococcus aureus
  Minimal Inhibitory Concentrations (Mics): 4-8 Mg/Ml

## CCCCCCCCCCCCCC(=O)N[C@@H](CCCCN)C(=O)N[C@@H](Cc1ccccc1)C(=O)N[C@@H](CCCCN)C(=O)N[C@@H](Cc1c[nH]c2ccccc12)C(=O)N1CCC[C@H]1C(=O)N[C@@H](Cc1c[nH]c2ccccc12)C(N)=O [compound 77] (Myristoyl-KFKWPW-NH2)
Candida albicans
  Minimal Inhibitory Concentrations (Mics): 4-8 Mg/Ml
Staphylococcus aureus
  Minimal Inhibitory Concentrations (Mics): 8-16 Mg/Ml
Pseudomonas aeruginosa
  Minimal Inhibitory Concentrations (Mics): 64-128 Mg/Ml

## CCCCCCCCCCCCCCC(=O)N[C@@H](CCCCN)C(=O)N[C@@H](Cc1ccccc1)C(=O)N[C@@H](CCCCN)C(=O)N[C@@H](Cc1c[nH]c2ccccc12)C(=O)N1CCC[C@H]1C(=O)N[C@@H](Cc1c[nH]c2ccccc12)C(N)=O [compound 78] (Pentadecanoyl-KFKWPW-NH2)
Staphylococcus aureus
  Minimal Inhibitory Concentrations (Mics): 32-64 Mg/Ml

## CCCCCCCCCCCCC(=O)N[C@@H](CCCCN)C(=O)N[C@@H](Cc1ccccc1)C(=O)N[C@@H](CCCCN)C(=O)N[C@@H](Cc1c[nH]c2ccccc12)C(=O)N1CCC[C@H]1C(=O)N[C@@H](Cc1c[nH]c2ccccc12)C(N)=O [compound 80] (Tridecanoyl-KFKWPW-NH2)
Staphylococcus aureus
  Minimal Inhibitory Concentrations (Mics): 2-4 Mg/Ml

## FAKLLAKALKKLL-NH2 [SEQ ID NO: 87]
Trychophyton rubrum
  MIC100: 500 µg/mL
[2]
  MIC100: 500 µg/mL

## FAKLLAKLAKKLL-NH2 [SEQ ID NO: 89]
Trychophyton rubrum
  MIC100: 500 µg/mL
[2]
  MIC100: 500 µg/mL

## FALKALKKLKKALKKAL-NH2 [SEQ ID NO: 86]
Trychophyton rubrum
  MIC100: 1000 µg/mL
[2]
  MIC100: 250 µg/mL

## H-KWKWFW-NH2 [compound 3]
Candida albicans
  Minimal Inhibitory Concentrations (Mics): 64-64 Mg/Ml
Staphylococcus aureus
  Minimal Inhibitory Concentrations (Mics): 32-64 Mg/Ml

## H-RFKWFW-NH2 [compound 7]
Candida albicans; C. albicans strain 105
  Minimal Inhibitory Concentrations (Mics): 64-128^1 Mg/Ml
Staphylococcus aureus
  Minimal Inhibitory Concentrations (Mics): 64-128 Mg/Ml

## KFKWPW-NH2 [SEQ ID NO: 1, KFKWPW-NH2]
Pseudomonas aeruginosa
  MIC, lipid length SAR: 32
MRSA; buffer, 2 mg/ml, 30 min
  MRSA count in kill curve: 99200
MRSA; buffer, 2 mg/ml, 1 hour
  MRSA count in kill curve: 62800
MRSA; buffer, 2 mg/ml, 2 hours
  MRSA count in kill curve: 99200
MRSA; buffer, 2 mg/ml, 3 hours
  MRSA count in kill curve: 99200
MRSA; buffer, 2 mg/ml, 4 hours
  MRSA count in kill curve: 99200
MRSA; buffer, 2 mg/ml, 5 hours
  MRSA count in kill curve: 99200
MRSA; serum, 1 mg/ml, 30 min
  MRSA count in kill curve: 102300
MRSA; serum, 1 mg/ml, 1 hour
  MRSA count in kill curve: 99600
MRSA; serum, 1 mg/ml, 2 hours
  MRSA count in kill curve: 15110
MRSA; serum, 1 mg/ml, 3 hours
  MRSA count in kill curve: 12080
MRSA; serum, 1 mg/ml, 4 hours
  MRSA count in kill curve: 5020
MRSA; serum, 1 mg/ml, 5 hours
  MRSA count in kill curve: 2570
MRSA; serum, 2 mg/ml, 30 min
  MRSA count in kill curve: 9800
MRSA; serum, 2 mg/ml, 1 hour
  MRSA count in kill curve: 3200
MRSA; serum, 2 mg/ml, 2 hours
  MRSA count in kill curve: 630
MRSA; serum, 2 mg/ml, 3 hours
  MRSA count in kill curve: 250
MRSA; serum, 2 mg/ml, 4 hours
  MRSA count in kill curve: 70
MRSA; serum, 2 mg/ml, 5 hours
  MRSA count in kill curve: 50
Trychophyton rubrum
  MIC100: 250 µg/mL
[2]
  MIC100: 250 µg/mL

## Lau-KFKWPW-NH2 (Lauroyl-KFKWPW-NH2; SMILES CCCCCCCCCCCC(=O)N[C@@H](CCCCN)C(=O)N[C@@H](Cc1ccccc1)C(=O)N[C@@H](CCCCN)C(=O)N[C@@H](Cc1c[nH]c2ccccc12)C(=O)N1CCC[C@H]1C(=O)N[C@@H](Cc1c[nH]c2ccccc12)C(N)=O) [SEQ ID NO: 72]
Pseudomonas aeruginosa
  MIC, lipid length SAR: 32
[3]
  MIC, lipid length SAR: 32
P. acnes; ATCC 6922
  Activity (MIC) against P. acnes: 1
P. acnes; ATCC 6923
  Activity (MIC) against P. acnes: 1
P. acnes; ATCC 25746
  Activity (MIC) against P. acnes: 1
P. acnes; ATCC 29399
  Activity (MIC) against P. acnes: 2
P. acnes; ATCC 33179
  Activity (MIC) against P. acnes: 1
P. acnes; ATCC 51277
  Activity (MIC) against P. acnes: 1

## Pal-KFKWPW-NH2 (Palmitoyl-KFKWPW-NH2; SMILES CCCCCCCCCCCCCCCC(=O)N[C@@H](CCCCN)C(=O)N[C@@H](Cc1ccccc1)C(=O)N[C@@H](CCCCN)C(=O)N[C@@H](Cc1c[nH]c2ccccc12)C(=O)N1CCC[C@H]1C(=O)N[C@@H](Cc1c[nH]c2ccccc12)C(N)=O) [SEQ ID NO: 73]
Pseudomonas aeruginosa
  MIC, lipid length SAR: >128
[3]
  MIC, lipid length SAR: >128

## Ste-KFKWPW-NH2 (Stearoyl-KFKWPW-NH2; SMILES CCCCCCCCCCCCCCCCCC(=O)N[C@@H](CCCCN)C(=O)N[C@@H](Cc1ccccc1)C(=O)N[C@@H](CCCCN)C(=O)N[C@@H](Cc1c[nH]c2ccccc12)C(=O)N1CCC[C@H]1C(=O)N[C@@H](Cc1c[nH]c2ccccc12)C(N)=O) [SEQ ID NO: 74]
Pseudomonas aeruginosa
  MIC, lipid length SAR: >128
[3]
  MIC, lipid length SAR: >128

## Tri-KFKWPW-NH2 (Tridecanoyl-KFKWPW-NH2; SMILES CCCCCCCCCCCCC(=O)N[C@@H](CCCCN)C(=O)N[C@@H](Cc1ccccc1)C(=O)N[C@@H](CCCCN)C(=O)N[C@@H](Cc1c[nH]c2ccccc12)C(=O)N1CCC[C@H]1C(=O)N[C@@H](Cc1c[nH]c2ccccc12)C(N)=O) [SEQ ID NO: 80]
Pseudomonas aeruginosa
  MIC, lipid length SAR: 32
[3]
  MIC, lipid length SAR: 32-64

## polymyxin B [reference compound]
Pseudomonas aeruginosa; P. aeruginosa 100609, tobromycin resistant
  MIC: 0.5 µg/mL
Pseudomonas aeruginosa; P. aeruginosa H187, wide type
  MIC: 0.5 µg/mL
Pseudomonas aeruginosa; P. aeruginosa H401, mucoid clinical isolate
  MIC: 0.25 µg/mL
Pseudomonas aeruginosa; P. aeruginosa M917, multi-drug resistant clinical isolate
  MIC: 1 µg/mL
P. aeruginosa; P. aeruginosa 100609
  MIC-PXB-combined: 0.125 µg/mL
P. aeruginosa; P. aeruginosa H187
  MIC-PXB-combined: 0.06 µg/mL
P. aeruginosa; P. aeruginosa H401
  MIC-PXB-combined: 0.0625 µg/mL
P. aeruginosa; P. aeruginosa M917
  MIC-PXB-combined: 0.25 µg/mL

From patent publication US7407940B2, “Antimicrobial hexapeptides” (Helix BioMedix Inc., priority 2005, dated 2008)
